Results as given in a melting point compilation (Tetko et al.).

Compound `O=C(c1c(F)c(F)c(F)c(F)c1F)n1ccnc1` has a melting point of 56 °C.

Work on `Cc1nccc(-c2cccc(S(=O)(=O)Cl)c2)n1` yielded a melting point of 174 to 175 °C.

`COc1ccc(P(c2ccc(OC)cc2)c2ccc(OC)cc2)cc1` gave a melting point of 131 to 134 °C.

For `CC12CCC(O)CC1CCC1C2CCC2(C)C(C3=CC(=O)OC3)C(O)CC12O` (stereo not drawn), the melting point was 234 °C.

For `CCOC(=O)C(C/C=C1\OC(=O)C(OC)=C1OC)S(=O)(=O)c1ccccc1` (stereo not drawn), the melting point was 99 to 101 °C.

`O=C(Oc1ccc2ccccc2c1)c1ccccc1O` gave a melting point of 95.5 °C.

With `O=c1nc2ccccc2nc(C(F)(F)F)c1NNc1ccc2ccccc2c1` the melting point was 151 °C.

For `COC(=O)c1c(C)oc(C)c1S(=O)(=O)Cl`, the melting point was 70 to 71 °C.

`Nc1ccncc1C=O` showed a melting point of 110 °C.

For `O=Cc1csc2ccccc12`, the melting point was 56 to 58 °C.

In the case of `Nc1nc(-c2ccc(Br)cc2)cs1`, the melting point is reported as 184 °C.

In the case of `Cc1nc2ccccc2n1CCc1n[nH]c(=S)o1`, the melting point is reported as 209 °C.

`COc1ccc(Cl)nn1` showed a melting point of 91 °C.

In the case of `O=C1c2ccccc2C(=O)C1(CN1CCOCC1)c1ccccc1`, the melting point is reported as 88 °C.

Work on `c1ccc2c(c1)ccc1nc3c(ccc4ccccc43)cc12` yielded a melting point of 226 °C.

In the case of `CC(=O)c1cc[nH]c1`, the melting point is reported as 112 to 114 °C.

`CCOc1cc2c(cc1OCC)C(=S)NCC2` gave a melting point of 150 to 152 °C.

Compound `Cc1cc(Br)ncc1I` has a melting point of 51 °C.

`CC(C)CC(C)(N)C(=O)O` (racemic) showed a melting point of 300 °C.

For `CC(=O)NCCNC(C)=O`, the melting point was 174 °C.

Work on `COc1cccc(F)c1` yielded a melting point of -35 °C.

`COc1cc2c3c(c4ccc(OC)c(OC)c4c2cc1OC)CN1CCCC1C3` (stereo not drawn) gave a melting point of 220 °C.

For `O=C1CN=C(c2ccccc2)c2cc([N+](=O)[O-])ccc2N1`, the melting point was 225 °C.

`C=C=C` gave a melting point of -136 °C.

`N#CCC(=O)NN` gave a melting point of 114 °C.

Work on `c1ccc(O[Si]23OCCN(CCO2)CCO3)cc1` yielded a melting point of 218 °C.

`Cc1cc2ccccc2c(-c2ccccc2)n1` showed a melting point of 87 °C.

`NC1=C(Cl)C(=O)c2ccccc2C1=O` showed a melting point of 201 °C.

Work on `CCC(C)(C)OC(N)=O` yielded a melting point of 86 °C.

Compound `NC(Cc1ccc(N(CCCl)CCCl)cc1)C(=O)O` (stereo not drawn) has a melting point of 182 °C.

With `Cc1ccc([N+](=O)[O-])cc1C(=O)O` the melting point was 179 °C.

With `O=C1c2ccccc2C(=O)N1CC1CNCCO1` (stereo not drawn) the melting point was 138 to 143 °C.

`Fc1ccc2nc(Cl)sc2c1` showed a melting point of 91 °C.

With `CC(=O)CCCCC(=O)O` the melting point was 35 °C.

Compound `COc1ccc2cc(C(=O)c3cc4ccc(OC)cc4oc3=O)c(=O)oc2c1` has a melting point of 271 °C.

`CSC(=O)c1cccc2nnsc12` showed a melting point of 133 °C.

`COC(=O)c1ccc(-c2ccccc2)nc1` showed a melting point of 110 °C.

`CCOC(=O)c1cc(C(=O)OCC)cc(C(=O)OCC)c1` showed a melting point of 134 °C.

With `NC(CC(=O)O)C(F)(F)F` (stereo not drawn) the melting point was 185 to 190 °C.

Work on `Nc1ccnc(N)c1` yielded a melting point of 107 °C.

Work on `O=C(O)c1ccc(CBr)c([N+](=O)[O-])c1` yielded a melting point of 131 °C.

`CCCC(=O)C(=O)O` gave a melting point of 6.5 °C.

For `Cc1ccn2c(=O)c3ccccc3cc2c1`, the melting point was 124 °C.

Work on `O=[N+]([O-])c1ccc(-n2ncc3cccnc32)c([N+](=O)[O-])c1` yielded a melting point of 181 to 187 °C.

In the case of `COc1cccc(C2C(C(=O)OC(C)C)=C(C)NC(C)=C2C(=O)OC(C)C)c1OC`, the melting point is reported as 141 °C.

With `O=C(O)COc1cccc2ccccc12` the melting point was 196 °C.

`CCCCCCCCOC(=O)c1ccccc1C(=O)OCCCCCCCC(C)C` gave a melting point of 98 °C.

With `NN1CCN(CCO)CC1` the melting point was 102 to 107 °C.

Compound `COc1ccc(C=Nc2n[nH]c(N=Cc3ccc(OC)c(OC)c3)c2Cc2ccc(Cl)cc2)cc1OC` has a melting point of 170 to 172 °C.

Compound `COc1ccccc1NC(=O)c1cncc(Cl)n1` has a melting point of 72 °C.

In the case of `OCc1cccc(Cl)c1Cl`, the melting point is reported as 88 to 94 °C.

`O=C(c1cccs1)c1noc(-c2ccc(Br)cc2)c1S(=O)(=O)c1ccccc1` gave a melting point of 130 °C.

Compound `Nc1ccc(C(=O)O)cc1OC(F)(F)F` has a melting point of 168 to 169 °C.

In the case of `COc1ccc(-n2nc(C(=O)c3cccc4ccccc34)sc2=N)cc1`, the melting point is reported as 75 °C.

Compound `Cc1cc(OC(=O)N(C)C)nn1C(=O)N(C)C` has a melting point of 69.5 °C.

`COc1cccc(C=C[N+](=O)[O-])c1OC` gave a melting point of 83 to 85 °C.

Compound `CC(C(O)c1ccccc1)N(C)C` (stereo not drawn) has a melting point of 87.5 °C.

In the case of `O=C(C[N+](=O)[O-])c1ccccc1`, the melting point is reported as 101 to 106 °C.

In the case of `Cc1ccnc(NS(=O)(=O)c2ccc(N)cc2)n1`, the melting point is reported as 234 °C.

`O=C1OC(=O)C2CC12` (stereo not drawn) gave a melting point of 54 to 60 °C.

For `Cc1cc([N+](=O)[O-])ccc1C(=O)O`, the melting point was 154 °C.

For `O=C1/C(=N/Nc2ccc(F)cc2)C(C(F)(F)F)=NN1c1ccccc1`, the melting point was 185 °C.

Compound `OCc1ccccc1COc1ccccc1` has a melting point of 50 to 51 °C.

`Cn1ccnc1C=O` gave a melting point of 35 to 39 °C.

In the case of `Cc1ccc(OP2(=S)Oc3ccc(Cl)cc3Sc3cc(Cl)ccc3O2)c(C)c1`, the melting point is reported as 149 °C.

Compound `O=C(ON=C(c1cc2ccccc2o1)c1cc2ccccc2o1)c1ccccc1` has a melting point of 154 to 155 °C.

Work on `N#Cc1cc(Br)ccc1O` yielded a melting point of 160 to 162 °C.

Work on `ClCc1c2ccccc2cc2ccccc12` yielded a melting point of 140 °C.

With `O=C(Nc1ccc(F)cc1)c1c(O)c(F)c(F)c(F)c1F` the melting point was 130 °C.

Compound `C[C@H](O)[C@@H](N)C(=O)O` has a melting point of 274 °C.

`Cn1c(=O)c2[nH]c(=O)[nH]c2n(C)c1=O` showed a melting point of 412 to 415 °C.

In the case of `Cn1cnc([N+](=O)[O-])c1Cl`, the melting point is reported as 146 to 150 °C.

`N#CC1CCCC1` showed a melting point of -76 °C.

For `BrCCOc1cccc2c1OCCO2`, the melting point was 85 to 86 °C.

For `CC(C)(C)c1cc(C(=O)NN)n(Cc2ccc(F)cc2)n1`, the melting point was 183 to 185 °C.

In the case of `CN1CCC23c4c5ccc(O)c4OC2C(O)CCC3C1C5` (stereo not drawn), the melting point is reported as 157 °C.

Work on `CCOC(=O)/C(=N\Nc1ccc([N+](=O)[O-])cc1)C(=O)C(F)(F)F` yielded a melting point of 184 °C.

For `COC(=O)c1sccc1NC(=O)CBr`, the melting point was 91 to 94 °C.

For `COC(=O)CCCCCCCCCCCC(=O)OC`, the melting point was 36 °C.

Compound `COc1cc2ccc(=O)oc2cc1O` has a melting point of 204 °C.

Work on `COC1C(O)C(C)OC(OC2CCC3(C)C(CCC4C3CCC3(C)C(C5=CC(=O)OC5)CCC43O)C2)C1O` (stereo not drawn) yielded a melting point of 221 °C.

`CC(=O)C=Cc1ccco1` showed a melting point of 39.5 °C.

For `CCOC(=O)C(=CN)C(=O)OCC`, the melting point was 63 °C.

`O=CC(Br)(Br)Br` gave a melting point of -57.5 °C.

Compound `CC(C)(C)OC(=O)N1CCN(c2ccc(C#N)cc2)CC1` has a melting point of 124 to 125 °C.

With `c1ccc(N2CN(c3ccccc3)CN(c3ccccc3)C2)cc1` the melting point was 191 °C.

Compound `c1cc2c3c(c4ccc5ccccc5c4cc3c1)CC2` has a melting point of 174 °C.

Work on `O=C(O)CCCCCC1NC(=O)CS1` (stereo not drawn) yielded a melting point of 140 °C.

In the case of `CCCCCCCCCCCCCC(=O)Cl`, the melting point is reported as -1 °C.

Work on `CCCCCC(C)CCC` (stereo not drawn) yielded a melting point of -99 °C.

Compound `Fc1ncccc1-c1ccc(Cl)cn1` has a melting point of 100 °C.

In the case of `COC1(OC)CC=CCC(OC)(OC)CC=CC1`, the melting point is reported as 201 to 202 °C.

In the case of `Cc1cscc1S(=O)(=O)c1ccc(Cl)cc1`, the melting point is reported as 102 to 104 °C.

With `CC(=O)OC1CCC2C3CC=C4CC5(CCC4(C)C3CCC12C)OCCO5` (stereo not drawn) the melting point was 196 °C.

`CCCCCCCCCCCCCCCc1cccc(O)c1` showed a melting point of 53.5 °C.

Work on `CC1(C)c2cccc(P(C(C)(C)C)C(C)(C)C)c2Oc2c(P(C(C)(C)C)C(C)(C)C)cccc21` yielded a melting point of 155 °C.

For `CC(C)(C)OC(=O)N[C@@H](CC(=O)O)c1ccc(Br)cc1`, the melting point was 144 °C.

`Cc1c(C)c2c(c(C)c1O)CCC(C)(CCCC(C)CCCC(C)CCCC(C)C)O2` (stereo not drawn) showed a melting point of 2.5 to 3.5 °C.

`COc1ccccc1-n1[nH]cc2c(=O)ncnc1-2` showed a melting point of 271 °C.

`OC1(c2ccc(Cl)c(C(F)(F)F)c2)CCN(CCCC(c2ccc(F)cc2)c2ccc(F)cc2)CC1` showed a melting point of 106 °C.

Work on `CC(C)(Oc1ccc(Cl)cc1)C(=O)OCCOC(=O)c1cccnc1` yielded a melting point of 100 °C.

Work on `O=S(=O)(Cl)c1ccc2nsnc2c1` yielded a melting point of 69 to 74 °C.

`CCOC(=O)C1C(=N)Oc2c(c(=O)oc3ccccc23)C1c1ccc(Br)cc1` (stereo not drawn) gave a melting point of 192 °C.

In the case of `CC(=O)N1CCc2cccc(N)c21`, the melting point is reported as 157 to 160 °C.

Work on `C=CCc1cc(C(C)=O)ccc1O` yielded a melting point of 115 to 118 °C.

`CC(C)(C)P(c1ccccc1-c1ccccc1)C(C)(C)C` showed a melting point of 84 to 87 °C.

For `CC(C(=O)O)C(=O)O`, the melting point was 129 to 136 °C.

In the case of `O=C(c1ccc(O)cc1)c1ccccc1F`, the melting point is reported as 117 °C.

For `CCCCS(=O)(=O)NC(Cc1ccc(OCCCCC2CCNCC2)cc1)C(=O)O` (stereo not drawn), the melting point was 223 °C.

`OCC1OC=CC(O)C1O` (stereo not drawn) showed a melting point of 99 to 103 °C.

With `Cc1cc(C)n2nc(N)c(Cc3ccc(F)cc3)c2n1` the melting point was 208 to 210 °C.

`O=c1oc2c(O)c(O)cc3c(=O)oc4c(O)c(O)cc1c4c23` gave a melting point of 450 °C.

`Cn1c(/C(C#N)=N/Nc2ccc([N+](=O)[O-])cc2)nc2ccccc21` showed a melting point of 238 °C.

In the case of `CCOC(=O)C1(c2cccc(O)c2)CCN(C)CC1`, the melting point is reported as 110 °C.

`Cc1cc(S(=O)(=O)Cl)c(C)cc1Cl` showed a melting point of 49 °C.

Compound `Cc1ccc([N+](=O)[O-])cc1I` has a melting point of 61 °C.

In the case of `COc1ccc(C=CC(=O)Cl)c(Cl)c1OC`, the melting point is reported as 86 to 88 °C.

With `CC(=O)C(=CNc1ccc(C)cc1)Cc1ccccc1` the melting point was 103 °C.

`NNCCO` showed a melting point of -70 °C.

Compound `CCOC(=O)CC(=O)c1cc(OC)c(OC)c(OC)c1` has a melting point of 86 to 91 °C.

Work on `C1=CCCC=C1` yielded a melting point of -89 °C.

With `CCC(C)NC(=O)C(C(F)(F)F)C(F)(F)F` (stereo not drawn) the melting point was 110 to 113 °C.

`C/C=C/C1Nn2c(nnc2-c2ccccc2OC)S1` (stereo not drawn) showed a melting point of 124 to 126 °C.

Work on `CN(CC=CC#CC(C)(C)C)Cc1cccc2ccccc12` yielded a melting point of 196 °C.

Work on `CC(=O)c1cc2cc(Cl)ccc2o1` yielded a melting point of 97 to 98 °C.

For `CCCCCCCCCCCCOC1OC(CO)C(OC2OC(CO)C(O)C(O)C2O)C(O)C1O` (stereo not drawn), the melting point was 217 °C.

Work on `CC(Oc1ccc2ccccc2c1)C(=O)Nc1ccccc1` (stereo not drawn) yielded a melting point of 128 °C.

`COC(=O)c1ccnnc1` gave a melting point of 66 °C.
